This is an account of results in the supplement of paper PMC10307832.

SMILES strings stand for the structures.

The test system of one experiment is NCI-H727. As to the kind of experiment: relative viability (nuclei count vs DMSO), 5 days (fraction); higher = more cells survive. Conditions: first compound 6.325 µM. The essentials:
(§1)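 Dosing by pin tool came one day after lung cancer cell lines were seeded in 1536-well plates, using either one drug or a fixed anchor-drug dose plus five library-drug doses (not always all listed) in √10 steps. After 5 days, nuclei were counted on 4× images. Relative viability is treated-well nuclei count divided by vehicle-well nuclei count, and values are medians of duplicate plates.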
Consider `COCC1(CO)C(=O)C2CCN1CC2` (stereo not drawn) [PRIMA-1MET] + COc1cccc2cc(-c3nc([C@H]4CC[C@H](C(=O)O)CC4)n4ncnc(N)c34)[nH]c12 [OSI-027] (partner 0.5 µM), for which the relative viability worked out at 0.536.
Compound `COCC1(CO)C(=O)C2CCN1CC2` (stereo not drawn) [PRIMA-1MET] + N=C(N)NC(=N)NCCc1ccccc1 [Phenformin] (partner 250 µM) yielded a relative viability of 0.342.
`COCC1(CO)C(=O)C2CCN1CC2` (stereo not drawn) [PRIMA-1MET] + Cc1nc(Nc2ncc(C(=O)Nc3c(C)cccc3Cl)s2)cc(N2CCN(CCO)CC2)n1 [Dasatinib] (partner 0.075 µM) registered a relative viability of 0.225.

Staying with this experiment, now noted: first compound 20 µM.
With `COCC1(CO)C(=O)C2CCN1CC2` (stereo not drawn) [PRIMA-1MET] + CCNC(=O)c1noc(-c2cc(C(C)C)c(O)cc2O)c1-c1ccc(CN2CCOCC2)cc1 [Luminespib] (partner 0.01 µM), the relative viability came to 0.213.
Same read-out and setting: then `COCC1(CO)C(=O)C2CCN1CC2` (stereo not drawn) [PRIMA-1MET] + COc1cccc2cc(-c3nc([C@H]4CC[C@H](C(=O)O)CC4)n4ncnc(N)c34)[nH]c12 [OSI-027] (partner 0.5 µM), with 0.338; and `COCC1(CO)C(=O)C2CCN1CC2` (stereo not drawn) [PRIMA-1MET] + N=C(N)NC(=N)NCCc1ccccc1 [Phenformin] (partner 250 µM), with 0.124.
The same measure, in the same setting: to `COCC1(CO)C(=O)C2CCN1CC2` (stereo not drawn) [PRIMA-1MET] + Cc1nc(Nc2ncc(C(=O)Nc3c(C)cccc3Cl)s2)cc(N2CCN(CCO)CC2)n1 [Dasatinib] (partner 0.075 µM) belongs 0.166.

The test system of the next experiment is NCI-H1944. Described as above. The note with it: first compound 0.2 µM. The essentials: as §1
`COCC1(CO)C(=O)C2CCN1CC2` (stereo not drawn) [PRIMA-1MET] + CCNC(=O)c1noc(-c2cc(C(C)C)c(O)cc2O)c1-c1ccc(CN2CCOCC2)cc1 [Luminespib] (partner 0.01 µM) displayed a relative viability of 0.671.
With `COCC1(CO)C(=O)C2CCN1CC2` (stereo not drawn) [PRIMA-1MET] + COc1cccc2cc(-c3nc([C@H]4CC[C@H](C(=O)O)CC4)n4ncnc(N)c34)[nH]c12 [OSI-027] (partner 0.5 µM), the relative viability was determined as 0.408.
Same read-out and setting: to `COCC1(CO)C(=O)C2CCN1CC2` (stereo not drawn) [PRIMA-1MET] + N=C(N)NC(=N)NCCc1ccccc1 [Phenformin] (partner 250 µM) belongs 0.215; to `COCC1(CO)C(=O)C2CCN1CC2` (stereo not drawn) [PRIMA-1MET] + Nc1nc2[nH]cc(CCc3ccc(C(=O)N[C@@H](CCC(=O)O)C(=O)O)cc3)c2c(=O)[nH]1 [Pemetrexed] (partner 0.2 µM), 0.738.
The compound `COCC1(CO)C(=O)C2CCN1CC2` (stereo not drawn) [PRIMA-1MET] + Cc1nc(Nc2ncc(C(=O)Nc3c(C)cccc3Cl)s2)cc(N2CCN(CCO)CC2)n1 [Dasatinib] (partner 0.075 µM) registered a relative viability of 0.225.

Still in this experiment, the particulars now being: first compound 0.6325 µM.
As for `COCC1(CO)C(=O)C2CCN1CC2` (stereo not drawn) [PRIMA-1MET] + CCNC(=O)c1noc(-c2cc(C(C)C)c(O)cc2O)c1-c1ccc(CN2CCOCC2)cc1 [Luminespib] (partner 0.01 µM), the relative viability stood at 0.612.
The same measure, in the same setting: to `COCC1(CO)C(=O)C2CCN1CC2` (stereo not drawn) [PRIMA-1MET] + COc1cccc2cc(-c3nc([C@H]4CC[C@H](C(=O)O)CC4)n4ncnc(N)c34)[nH]c12 [OSI-027] (partner 0.5 µM) belongs 0.359; to `COCC1(CO)C(=O)C2CCN1CC2` (stereo not drawn) [PRIMA-1MET] + N=C(N)NC(=N)NCCc1ccccc1 [Phenformin] (partner 250 µM), 0.189; to `COCC1(CO)C(=O)C2CCN1CC2` (stereo not drawn) [PRIMA-1MET] + Nc1nc2[nH]cc(CCc3ccc(C(=O)N[C@@H](CCC(=O)O)C(=O)O)cc3)c2c(=O)[nH]1 [Pemetrexed] (partner 0.2 µM), 0.555.
As to `COCC1(CO)C(=O)C2CCN1CC2` (stereo not drawn) [PRIMA-1MET] + Cc1nc(Nc2ncc(C(=O)Nc3c(C)cccc3Cl)s2)cc(N2CCN(CCO)CC2)n1 [Dasatinib] (partner 0.075 µM), the relative viability is 0.19.

Still in this experiment, the particulars now being: first compound 2 µM.
Take `COCC1(CO)C(=O)C2CCN1CC2` (stereo not drawn) [PRIMA-1MET] + CCNC(=O)c1noc(-c2cc(C(C)C)c(O)cc2O)c1-c1ccc(CN2CCOCC2)cc1 [Luminespib] (partner 0.01 µM): the relative viability turned out to be 0.61.
In turn, `COCC1(CO)C(=O)C2CCN1CC2` (stereo not drawn) [PRIMA-1MET] + COc1cccc2cc(-c3nc([C@H]4CC[C@H](C(=O)O)CC4)n4ncnc(N)c34)[nH]c12 [OSI-027] (partner 0.5 µM) yielded a relative viability of 0.3.
Still for that read-out and setting: to `COCC1(CO)C(=O)C2CCN1CC2` (stereo not drawn) [PRIMA-1MET] + N=C(N)NC(=N)NCCc1ccccc1 [Phenformin] (partner 250 µM) belongs 0.155; to `COCC1(CO)C(=O)C2CCN1CC2` (stereo not drawn) [PRIMA-1MET] + Nc1nc2[nH]cc(CCc3ccc(C(=O)N[C@@H](CCC(=O)O)C(=O)O)cc3)c2c(=O)[nH]1 [Pemetrexed] (partner 0.2 µM), 0.535; to `COCC1(CO)C(=O)C2CCN1CC2` (stereo not drawn) [PRIMA-1MET] + Cc1nc(Nc2ncc(C(=O)Nc3c(C)cccc3Cl)s2)cc(N2CCN(CCO)CC2)n1 [Dasatinib] (partner 0.075 µM), 0.213.

Still in this experiment, the particulars now being: first compound 6.325 µM.
In turn, `COCC1(CO)C(=O)C2CCN1CC2` (stereo not drawn) [PRIMA-1MET] + CCNC(=O)c1noc(-c2cc(C(C)C)c(O)cc2O)c1-c1ccc(CN2CCOCC2)cc1 [Luminespib] (partner 0.01 µM) gave a relative viability of 0.685.
Still for that read-out and setting: to `COCC1(CO)C(=O)C2CCN1CC2` (stereo not drawn) [PRIMA-1MET] + COc1cccc2cc(-c3nc([C@H]4CC[C@H](C(=O)O)CC4)n4ncnc(N)c34)[nH]c12 [OSI-027] (partner 0.5 µM) belongs 0.409; to `COCC1(CO)C(=O)C2CCN1CC2` (stereo not drawn) [PRIMA-1MET] + N=C(N)NC(=N)NCCc1ccccc1 [Phenformin] (partner 250 µM), 0.201.
Still for that read-out and setting: then `COCC1(CO)C(=O)C2CCN1CC2` (stereo not drawn) [PRIMA-1MET] + Nc1nc2[nH]cc(CCc3ccc(C(=O)N[C@@H](CCC(=O)O)C(=O)O)cc3)c2c(=O)[nH]1 [Pemetrexed] (partner 0.2 µM), with 0.519; and `COCC1(CO)C(=O)C2CCN1CC2` (stereo not drawn) [PRIMA-1MET] + Cc1nc(Nc2ncc(C(=O)Nc3c(C)cccc3Cl)s2)cc(N2CCN(CCO)CC2)n1 [Dasatinib] (partner 0.075 µM), with 0.219.

The same experiment, now with this note: first compound 20 µM.
The compound `COCC1(CO)C(=O)C2CCN1CC2` (stereo not drawn) [PRIMA-1MET] + CCNC(=O)c1noc(-c2cc(C(C)C)c(O)cc2O)c1-c1ccc(CN2CCOCC2)cc1 [Luminespib] (partner 0.01 µM) had a relative viability of 0.724.
On to `COCC1(CO)C(=O)C2CCN1CC2` (stereo not drawn) [PRIMA-1MET] + COc1cccc2cc(-c3nc([C@H]4CC[C@H](C(=O)O)CC4)n4ncnc(N)c34)[nH]c12 [OSI-027] (partner 0.5 µM), for which the relative viability amounted to 0.393.
The same measure, in the same setting: to `COCC1(CO)C(=O)C2CCN1CC2` (stereo not drawn) [PRIMA-1MET] + N=C(N)NC(=N)NCCc1ccccc1 [Phenformin] (partner 250 µM) belongs 0.214.
Still for that read-out and setting: to `COCC1(CO)C(=O)C2CCN1CC2` (stereo not drawn) [PRIMA-1MET] + Nc1nc2[nH]cc(CCc3ccc(C(=O)N[C@@H](CCC(=O)O)C(=O)O)cc3)c2c(=O)[nH]1 [Pemetrexed] (partner 0.2 µM) belongs 0.655; to `COCC1(CO)C(=O)C2CCN1CC2` (stereo not drawn) [PRIMA-1MET] + Cc1nc(Nc2ncc(C(=O)Nc3c(C)cccc3Cl)s2)cc(N2CCN(CCO)CC2)n1 [Dasatinib] (partner 0.075 µM), 0.232.

The subject of another experiment is NCI-H2126. The experiment is described as above. Conditions: first compound 0.2 µM. The method, boiled down:
as §1
For the compound `COCC1(CO)C(=O)C2CCN1CC2` (stereo not drawn) [PRIMA-1MET] + CCNC(=O)c1noc(-c2cc(C(C)C)c(O)cc2O)c1-c1ccc(CN2CCOCC2)cc1 [Luminespib] (partner 0.01 µM), the relative viability came to 0.963.
